87 compounds from a melting point compilation (Tetko et al.; mined from patent text by program, amines drawn as free bases though some values may be those of a salt) can be followed below.

Each structure is given as a SMILES string. Some results are limits rather than exact numbers.

Turning to `CCOC(=O)C(=O)Nc1cc(NC(C)=O)ccc1O`, the melting point was over 300 °C.
In the case of `CC(C)(C)OC(=O)N1CCC(C(=O)c2cccs2)CC1` it was 154 to 156 °C.
In the case of `CCOC(=O)c1ccc(-c2nc(COc3ccc(C=O)cc3OC)c(C)o2)s1` it was 155 to 156 °C; in that of `COC(=O)[C@@H]1C[C@H](NC(C)=O)C(=O)[C@H]2[C@@]1(C)CC[C@H]1C(=O)O[C@H](c3ccoc3)C[C@]21C`, 222 to 224 °C; in that of `CCCOCCOC(=O)C1=C(C)NC(C)=C(/C=C/S(=O)(=O)NC(C)C)C1c1cccc([N+](=O)[O-])c1` (configuration not stated), 152 to 154 °C.
In the case of `O=Cc1ccc(-c2cn(S(=O)(=O)c3ccccc3)c3ccccc23)o1` it was 140 °C; in that of `CCON=C(C(C)=NOCc1ccccc1C(=COC)C(=O)OC)c1ccc(OC(C)c2ccc(Cl)cc2)cc1` (configuration not stated), 107 to 109 °C.
Compound `c1c2c(cc3c1OCO3)CN(CN1CCc3cc4c(cc3C1)OCO4)CC2` came in with a melting point of 116 °C.
With `CC(C)(C)OC(=O)Cn1ccn(C2CCc3ccccc3C2)c1=S` (configuration not stated) the figure was 167 to 169 °C; with `CCCn1c(=O)c2c(nc(/C=C/c3ccc(OC)c(OC)c3)n2C)n(CCC)c1=O`, 127 °C.
In the case of `CCC(C)(C)c1cc(C(=O)CI)cc(C(C)(C)CC)c1O` it was 76 to 77 °C; in that of `O=C(Nc1ccc2[nH]c(=O)[nH]c2c1)C(=O)N1CCC(Cc2ccc(Cl)cc2)CC1`, 299 to 300 °C.
Compound `COc1cc2c(c3c1OC(C)(C)C3)C(c1cccc(-c3ccc(NC(=O)C(F)(F)F)cc3)c1)=NC(C)(C)C2` gave a melting point of 149 to 154 °C.
Compound `O=C(Nc1ccc(Cl)cn1)c1cc(Cl)ccc1NCC1CCN(C2CCCCC2)CC1` showed a melting point of 186 to 188 °C.
In the case of `COc1ccc2cnc(Nc3ccc(N4CCCCC4)c(F)c3)nc2c1C1CCCC1` it was 200 to 201 °C; in that of `COc1ccc2[nH]c(-c3ccccc3N)cc2c1`, 198 to 200 °C.
In the case of `Clc1ccc2c(c1)c(-c1ccccc1)cc1nncn12` it was 265 to 266 °C; in that of `CNc1nc(C)c(-c2sc(NC)nc2C)s1`, over 280 °C.
In the case of `CC(=O)NCc1ccsc1` it was 46 to 47 °C.
Compound `CC(=O)NCc1ccc(CN2CCN(c3ccccn3)CC2)cc1` registered a melting point of 100 to 101 °C.
For the compound `COc1cc2cc(CO)c(CO)c(-c3ccnc(Nc4ccccc4CCCO)c3)c2cc1OC`, the melting point was in the range of 156 to 158 °C.
With `Cc1c(C)c2c(c(C)c1NS(C)(=O)=O)C(c1ccc(C(C)C)cc1)CO2` (configuration not stated) the figure was 132 to 133 °C.
With `COC(=O)c1ccc(N2C(=O)CCC2(CO)CO)c(N)c1` the figure was 192 to 194 °C; with `CCOc1cc(-c2cc(C(F)(F)F)nc(Cl)n2)ccc1C(F)(F)F`, 89 °C.
In the case of `O=C(c1ccccc1)N1CCc2[nH]c3c(-c4ccccc4)cccc3c2CC1` it was 198 to 200 °C; in that of `CCN(C)c1nc2sc3c(NCc4ccccn4)ncnc3c2c2c1CCC(C)(C)C2`, 152 °C; in that of `CC(=O)NC[C@H]1CN(c2ccc(N3CCC(O)(COS(C)(=O)=O)CC3)c(F)c2)C(=O)O1`, 136 to 138 °C.
`CCOC(=O)Cc1ccc(-c2ccc(-c3ccccc3)cc2)o1`: the melting point was in the range of 77 to 78 °C.
With `CCOCCOC(=O)C(=O)Nc1nc(-c2c(C)cc(C)cc2C)cs1` the figure was 124 to 125 °C; with `CCN(CC)Cc1c(Cl)ccc2cc(Cl)cnc12`, 54 °C; with `COc1cc2nc(-c3ccc(Cl)cc3)nc(Cl)c2cc1OC`, 204 to 206 °C.
With `O=C(Nc1ccc(CCl)cc1)C1=Cc2cc(-c3ccccc3)ccc2CC1` the figure was 176 to 177 °C.
With `O=C1O[C@@H](Cn2ccnn2)CN1c1ccc(-c2ccc(CO)nc2)c(F)c1` the figure was 177 °C; with `COC(=O)[C@@H]1[C@H](c2ccccc2)CC(=O)N1C`, 100 °C.
The compound `O=C1CCC(=O)N1Cc1cccc(Nc2n[nH]c3ncnc(Nc4cccc(Cl)c4)c23)c1` gave a melting point of 140 to 142 °C.
With `COc1cc(N)c(Cl)cc1C(=O)NCC1CCN(CCCCCNC(=O)Nc2ccccc2)CC1` the figure was 214 to 217 °C.
`Cc1sc2ccccc2c1C=O`: the melting point fell in the range of 95 to 96 °C.
With `CCc1nc(S(=O)(=O)Nc2c(Cl)cccc2Cl)nn1-c1ccccc1` the figure was 185 to 187 °C; with `O=C1NC(=O)C(=Cc2ccc3c(c2)CCC(Cc2ccccc2)N3Cc2ccccc2)S1` (configuration not stated), 199 to 201 °C.
In the case of `COc1cc([N+](=O)[O-])ccc1C(=O)N1CCCCC1` it was 104 °C; in that of `COc1ccc(COCc2ccc(OC)cc2)cc1`, 58 to 59 °C.
On to `O=C(OCc1ccccc1)C1(Nc2ccccc2)CCN(CCc2ccccc2)CC1`, for which the melting point is 76.7 °C.
With `CC1(C)CS(=O)(=O)CC(C)(C)N1CC#N` the figure was 188 °C; with `COC(=O)Cc1c(C)n(-c2nc3ccccc3o2)c2ccc(OC)cc12`, 125 to 126 °C; with `CNC(=C[N+](=O)[O-])NCCc1nnc(NCCCOc2cccc(CN3CCCCC3)c2)n1C`, 110 to 112 °C.
As for `COc1ccc(-c2cn3c(n2)CCC3)cc1`, the melting point lay within 116 to 118 °C.
With `COc1cc2[nH]c(C)c(CCN3CCN(NC(=O)c4ccccc4)CC3)c2cc1OC` the figure was 128 to 131 °C; with `Cc1ccc(N(c2ccc(C)cc2)c2ccc(-c3ccc(-c4ccc(N(c5ccc(C)cc5)c5ccc(C)cc5)cc4)cc3)cc2)cc1`, 232 to 234 °C; with `O=C(O)C1Cc2ccc(Cl)cc2NC1=O` (configuration not stated), 158 to 160 °C.
For `COC(=O)C1CCc2c(noc2-c2ccc(Cl)cc2)C1` (configuration not stated), the melting point is 141 to 143 °C.
Turning to `COc1ccc(NC(=O)C(C)(C)CCCOc2cc(C)ccc2C)cc1OC`, the melting point was in the range of 110 to 111 °C.
With `CCCN1N=C2C(=Cc3ccc(Cl)cc3)CSCC2C1c1ccc(Cl)cc1` (configuration not stated) the figure was 118 to 122 °C; with `CC(C)(C#N)c1cc(CSc2ccc(O)c(Cl)c2)cc(Cn2cncn2)c1`, 131 °C.
Turning to `O=C(NC1CCC(CCN2CCC(c3cccc4c3CCO4)CC2)CC1)c1ccc(N2CCS(=O)(=O)CC2)cc1` (configuration not stated), the melting point turned out to be 282 °C.
In the case of `O=C(O)CCn1c(=O)c(=O)[nH]c2cc(C(F)(F)F)c(-n3cccc3)cc21` it was 190 to 192 °C; in that of `COC(=O)c1cc(Br)ccc1O`, 59 to 61.5 °C; in that of `CCCn1c(=O)c(C(=O)OCC)c(O)c2ccc(C)nc21`, 128 to 130 °C.
With `Cc1ccc(OCc2ccccc2)c2[nH]c(-c3ccccc3)nc12` the figure was 221 to 224 °C; with `CC1=C(C(=O)O)C(c2cccc([N+](=O)[O-])c2)NC(=N[N+](=O)[O-])N1` (configuration not stated), 236 to 238 °C; with `NC(=O)c1cc(NCc2ccccc2)c([N+](=O)[O-])cc1[N+](=O)[O-]`, 143 to 146 °C.
In the case of `CCCCC1N=CC(C=O)(Cc2ccc(C(=O)OC)c3ccccc23)N1` (configuration not stated) it was 95.5 to 97 °C.
Compound `Cc1cncc(CNC(=O)c2sc(N3CCN(CCCC(F)(F)F)C3=O)nc2C)n1` yielded a melting point of 123 °C.
In the case of `CS(=O)(=O)c1ccc(C2=C(c3ccc(-c4cscn4)cc3)C(=O)OC2)cc1F` it was 218 °C; in that of `COc1cc2onc(N)c2cc1Br`, 226 to 227 °C; in that of `CCN(c1nc(C)cc(C(=O)O)n1)c1ccc(C(C)C)cc1Br`, 102 to 104 °C.
As to `CC(=O)Nc1ccc(-c2ccc(NC(C)=O)cc2I)c(I)c1`, the melting point fell in the range of 300 to 301 °C.
`Fc1ccc(Cl)cc1-c1nnn[nH]1` had a melting point of 124 °C.
With `O=C1NCCN1Cc1ccc(Cl)c(Cl)c1` the figure was 129 to 130 °C; with `OCc1ccc2cc(CO)ccc2c1`, 171 to 172 °C; with `COc1cc2c(c(Cl)c1Cl)C(=O)C(C)(c1ccc(Cl)cc1)C2` (configuration not stated), 176 to 178 °C.
In the case of `CCc1ccn(-c2ccc(S(C)(=O)=O)cc2)c1-c1ccc(F)cc1` it was 107 to 108 °C; in that of `CC(=O)Nc1ccc(S(=O)(=O)Nc2ccccc2)cc1`, 209 to 210 °C.
In the case of `COc1cccc2sc(C(N)=O)c(N)c12` it was 151 to 153 °C.
Turning to `CCCCCS(=O)(=O)NC(=O)/C=C/c1ccc(OCCOC)cc1NC(=O)c1ccc(F)cc1F`, the melting point is 140 to 141 °C.
On to `O=C1NC2CC3CC(C2)CC1C3`, for which the melting point is over 270 °C.
In the case of `N=C(NO)c1nc2cnc3ccc(Cl)cc3c2n1-c1ccccc1Cl` it was 265 to 267 °C.
With `CCCC=CCC1CC(=O)N(c2cc(Cc3n[nH]c(=O)c4ccccc34)ccc2F)C1=O` (configuration not stated) the figure was 146 to 149 °C.
In the case of `O=C1N(Cc2ccc(-c3ccccc3Cl)o2)c2ccccc2C12COc1cc3c(cc12)OCO3` (configuration not stated) it was 148 to 150 °C; in that of `c1ccc2cc(CN3CCN(c4nccs4)CC3)ccc2c1`, 83 to 84 °C; in that of `N#CC(=C(Nc1cc(C(F)(F)F)cc(C(F)(F)F)c1)NC1CCCC1)S(=O)(=O)c1ccc(Cl)cc1`, 199 to 200 °C.
On to `COC(=O)[C@H]1Cc2c([nH]c3ccccc23)[C@@H](c2ccc3occc3c2)N1C(=O)[C@H](C)NC(=O)OCc1ccccc1`, for which the melting point fell in the range of 91 to 92 °C.
With `CC(=O)c1c2cnnc-2sn1C` the figure was 130 to 131 °C.
With `CCCOC[C@]1(OC)CC[C@H]2[C@@H]3CCC4=CC(=O)CCC4=C3[C@@H](c3ccc(C(C)=O)cc3)C[C@@]21C` the figure was 118 to 120 °C; with `Cc1ccc(-c2cc(F)c(F)cc2-c2ccc(S(C)(=O)=O)cc2)cc1Cl`, 138 to 139 °C; with `Cc1cc(C(=O)Nc2c(NC(=O)CCl)ccc3c2C(=O)c2ccccc2C3=O)c(C)o1`, 207 to 208 °C.
The compound `COc1cccc2nc(-c3cc(C)c(OCCN4CCCC4)c(C)c3)[nH]c(=O)c12` registered a melting point of 157 to 158 °C.
With `O[C@H]1CCC[C@H]1Oc1cccc2onc(OCC3CCN(CC4(O)CCOCC4)CC3)c12` (relative stereo) the figure was 141 °C.
